Assay results as given in BindingDB's records for doi:10.1080/14756360400004565 (Universit&Eacute, 2004).

target: Glycogen synthase kinase-3 beta (Homo sapiens, UniProt P49841); assay: Kinase Assay
Procedure: Kinase activities were assayed according to the methodology developed by the Cell Cycle Group of the Station Biologique (CNRS).

Sequence of Glycogen synthase kinase-3 beta (P49841 whole entry): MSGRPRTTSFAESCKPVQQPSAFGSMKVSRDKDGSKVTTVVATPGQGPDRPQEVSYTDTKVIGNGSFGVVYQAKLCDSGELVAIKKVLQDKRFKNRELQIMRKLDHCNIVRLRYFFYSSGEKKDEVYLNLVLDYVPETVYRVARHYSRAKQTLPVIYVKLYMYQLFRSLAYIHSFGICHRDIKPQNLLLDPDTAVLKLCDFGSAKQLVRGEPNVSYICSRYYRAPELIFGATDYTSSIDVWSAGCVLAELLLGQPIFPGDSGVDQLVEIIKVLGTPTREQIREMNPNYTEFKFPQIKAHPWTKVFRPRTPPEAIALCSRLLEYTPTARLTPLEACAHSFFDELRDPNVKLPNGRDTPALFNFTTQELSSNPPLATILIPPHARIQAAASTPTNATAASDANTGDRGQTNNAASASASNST

| Compound | IC50 |
| --- | --- |
| O=C1c2cscc2-n2cccc21 [Thienopyrrolizine derivative, 5] | > 50 µM |
| COc1ccc(-c2csc3c2-n2cccc2C3=O)cc1OCc1ccccc1 | > 50 µM |
| COc1ccc(-c2csc3c2-n2cccc2C3=O)cc1OC(C)=O [Thienopyrrolizine derivative, 4k] | > 50 µM |
| COc1cccc(-c2csc3c2-n2cccc2C3=O)c1 [Thienopyrrolizine derivative, 4b] | > 50 µM |
| COc1ccc(-c2csc3c2-n2cccc2C3O)cc1O (centres undefined) [Thienopyrrolizine derivative, 13g] | 19 µM |
| CC(=O)Oc1ccc(-c2csc3c2-n2cccc2C3=O)cc1OC(C)=O [Thienopyrrolizine derivative, 4h] | > 50 µM |
| CCOC(=O)Oc1cc(-c2csc3c2-n2cccc2C3=O)ccc1OC [Thienopyrrolizine derivative, 4l] | > 50 µM |
| COc1ccc(-c2csc3c2-n2cccc2C3=O)cc1O [MR-22388] | 1.5 µM |
| COc1ccc(-c2csc3c2-n2cccc2C3=O)cc1OC(=O)CCCC(=O)O [Thienopyrrolizine derivative, 4n] | 11 µM |
| COc1ccc(-c2csc3c2-n2cccc2C3O)cc1OCc1ccccc1 (centres undefined) [Thienopyrrolizine derivative, 13e] | > 50 µM |
| COc1ccc(-c2csc3c2-n2cccc2C3=O)cc1OC(=O)C(C)(C)C [Thienopyrrolizine derivative, 4m] | > 50 µM |
| Cc1ccc(-c2csc3c2-n2cccc2C3=O)cc1 [Thienopyrrolizine derivative, 4a] | > 50 µM |
| CCOc1ccc(-c2csc3c2-n2cccc2C3=O)cc1 [Thienopyrrolizine derivative, 4c] | > 50 µM |
| CCC(=O)Oc1ccc(-c2csc3c2-n2cccc2C3=O)cc1OC(=O)CC [Thienopyrrolizine derivative, 4i] | > 50 µM |
